≈ marks a conversion by molar mass, not a printed value. Like-named read-outs stand apart in the source and are kept apart here.
Assays:
Hepatitis B Virus = experiment: HBV secretion from chronically HBV secreting HepG2.2.15 cells (preS1 immunoprecipitation of virions, PCR); type: cell-based; settings: for Relative amount of HBV secreted as a % of Control: 3 days, control = 100
Experimental: (§1) The anti-hepatitis B virus activity and effect on cell viability of a number of different N-substituted-1,5-dideoxy-1,5-imino-D-glucitol compounds were assessed using an in vitro assay employing chronically hepatitis B virus secreting HepG2.2.15 cells. The method employed was essentially that described in Block et al. (1994) Proc. Natl. Acad. Sci. USA 91:2235-2239.

HepG2.2.15 cells = experiment: Cell viability by trypan blue exclusion; type: cell-based; settings: 3 days, cells excluding trypan blue
[1] = tested on: woodchuck hepatitis virus (WHV); experiment: Monotherapy in woodchuck model, BID oral dosing for 4 weeks; type: in vivo
Experimental: Therefore, five groups of four animals each (all groups had both sexes, all but the control had two of each sex) were assigned to 0, 12.5, 25, 50, and 100 mg/kg/day with BID oral dosing. These were lab-reared wild animals. All animals were infected with woodchuck hepatitis virus (WHV) as neonates, and had been tested positive on serological tests for WHV surface antigen. Blood samples were drawn one week prior to dosing (-1 week), immediately before dosing (0 weeks), weekly during dosing (1, 2, 3, and 4 weeks), and after the end of dosing (5, 6, 8, and 10 weeks).
(§2) There are two measures of drug efficacy: reduction in total HBV DNA (measured by quantitative PCR), and reduction in HBV DNA from capsids with intact surface glycoproteins, which is the active form of the virus (measured by an ELISA-like immune precipitation assay followed by quantitative PCR).
Before models are fitted to the data, a log transform was applied because: 1) the variation in IPDNA increases with increasing IPDNA values; the log transformation gives values with a nearly constant variation, and 2) it is expected that drug effects will appear as a constant multiplier of the IPDNA level. Because there are zero values of IPDNA, a small value (about 1/2 of the smallest non-zero value) was added to all values before the log transform.
Two approaches were used to model the changes in slope to week with dose of N-nonyl-DNJ: a linear modeling approach and a nonlinear model. Both approaches assume that the (linear) rate of change of the Log(IPDNA) measure over the dosing period is the "right" measure to reflect the effect of the drug on the virus. Both approaches are fit in stages, and the first stage is common to both approaches. First, a simple straight line regression model is fit using weeks 0-4 to predict log(IPDNA_+_10) separately for each animal by run combination. In the second stage, the response variable is the slope fitted in the first stage.
For the linear approach, a model is fit with slope to week as the response where run is considered a block, dose has a significant effect (almost all of this effect is due to a slope to dose), and the relevant error for testing the effect of dose is the variation among animals treated alike (after the adjustment for the runs as blocks). This is similar to using the calibration data within each run to first adjust each run's data to a common virus DNA concentration; the difference is that here the data from the woodchucks are used for the run adjustment rather than only the calibration data.
For the nonlinear approach, a four parameter logistic model is fit with the slope to week as the response and the dose as the predictor. […]

[2] = tested on: HepG 2.2.15 (2.2.15) cells; experiment: IC-90 values used for the combostat dilutions (unpublished observation / literature); type: cell-based; settings: Hepatitis B virus, HepG2.2.15, T. Block and G. Jacob
Experimental: The anti-hepatitis B virus effect of […] (3TC) alone and in combination with N-nonyl-DNJ was determined according to Korba ((1996) Antiviral Research 29(1):49-51), using the "combostat" strategy (Comstat Program, Combostat Corp., Duluth, MN). The combostat method involves serially diluting the IC-90 of each compound. The IC-90 of N-nonyl-DNJ has been determined to be between 4 and 10 µg/ml (T. Block and G. Jacob, unpublished observation). The accepted IC-90 for 3TC in HepG 2.2.15 (2.2.15) cells is 300nM to 500nM (Doong et al. (1991) Proc. Natl. Acad. Sci. USA 88:8495-8499).

HBV DNA = experiment: Cell culture experiments with N-nonyl-DNJ: total HBV DNA and immune precipitated DNA; type: cell-based
Text: as §2

[3] = MTT-based colorimetric cell viability assay; settings: human, hepg2.2.15 cells; read-out: [] for a 50% reduction in MMT
Experimental: as §1
• 1: N-(n-nonyl)-1,5-dideoxy-1,5-imino-D-glucitol • 2: N-(n-butyl)-1,5-dideoxy-1,5-imino-D-glucitol, diacetate • 3: 1,5-dideoxy-1,5-imino-D-glucitol, tetracetate • 4: N,O-(1,6-carbonyl)-1,5-dideoxy-1,5-imino-D-glucitol • 5: N-(n-butyl)-2,3-dimethoxy-1,5-dideoxy-1,5-imino-D-glucitol • 6: N-(n-hexyl)-4,6-benzylidine-1,5-dideoxy-1,5-imino-D-glucitol • 7: N-(n-butyl)-3-methoxy-1,5-dideoxy-1,5-imino-D-glucitol • 8: N-(4,4,4-triflourobutyl)-2,3-dimethoxy-1,5-dideoxy-1,5-imino-D-glucitol, tetracetate • 9: N,O-(1,6-methylenecarbonyl)-1,5-dideoxy-1,5-irriino-D-glucitol • 10: N-(8,8,8-triflourooctyl)-1,5-dideoxy-1,5-imino-D-glucitol MMT: 3-(4,5-dimethylthiazol-2-yl)-2,5-diphenyltetrazolium bromide. The MTT-based colorimetric assay is a measurement of cell viability (Heo et al. (1990) Cancer Research 50:3681-3690).

[4] = Cell viability by trypan blue exclusion; type: cell-based; settings: human, hepg2.2.15 cells, 3 days, cells excluding trypan blue, read-out: % Viable +/-1 S.D.
[5] = concentration [200] (unit not given)
[6] = concentration [1000] (unit not given)

Molecule	Relative amount of HBV secreted as a % of Control (Hepatitis B Virus; [5])	Relative amount of HBV secreted as a % of Control (Hepatitis B Virus; [6])	[ ] for 90% HBV secretion inhibition (Hepatitis B Virus; duplicate PCR results, * lowest concentration tested, ** no inhibition at the highest concentration used (200 microgs/ml))	% Viable +/-1 S.D. (HepG2.2.15 cells; [5])	% Viable +/-1 S.D. (HepG2.2.15 cells; [6])	decrease of IPDNA at the minimum slope ([1]; corresponds to the average minimum slope)	average minimum slope observed ([1]; printed as 'fewer' (a decrease), weeks 0-4)	effect on total HBV DNA measurements ([1]; quantitative PCR, all dose levels, pre-dose and dosed portions of the study)	IPDNA levels over the dosing period ([1]; weeks 0-4, immune precipitation followed by quantitative PCR)	IC90 [2]	effect on immune precipitated DNA (IPDNA) (HBV DNA)	effect on total HBV DNA (HBV DNA)	CC50 [3]	IC90 (Hepatitis B Virus; Hepatitis B virus, HepG2.2.15, duplicate PCR results, * lowest concentration tested, ** no inhibition at the highest concentration used (200 microgs/ml), read-out: [ ] for 90% HBV secretion inhibition)	% Viable +/-1 S.D. (HepG2.2.15 cells; concentration [200] (unit not given), listed as 1, 4320 min)	viability at 72 h ([4]; concentration [200] (unit inferred))	viability at 72 h ([4]; concentration [1000] (unit inferred))
1,5-(butylimino)-1,5-dideoxy-D-glucitol, tetraacetate [Example 2]	107.0 +/-12 (n=3) %	38.0 +/-15 (n=3) %	>200*s* microgs per ml	90 +/-6 (n=4) %	89 +/-4 (n=4) %												
CCCCCCCCCN1C[C@H](O)[C@@H](O)[C@H](O)[C@H]1CO [Compound 1 (Table 3), N-(n-nonyl)-1,5-dideoxy-1,5-imino-D-glucitol]						about 25 %/week	0.31 Log(IPDNA g/mL)/week	no effect	high dose animals tended to have decreasing levels of IPDNA	4 to 10 µg/mL	marked effect	little or no effect					
CCCCN1C[C@H](O)[C@@H](O)[C@H](O)[C@H]1CO [NBDNJ, N-(n-butyl-)-1,5-dideoxy-1,5-imino-D-glucitol]	37.0 +/-13 (n=15) %	3.2 +/-5 (n=15) %											100 to 200 µg/mL (≈ 456 to 912 µM)	0.5 to 1 µg/mL (≈ 2.28 to 4.56 µM)	90 +/-2 (n=4) %	94 ± 6%	87 ± 3%

From patent publication EP1658846B1, “N-(8,8,8-trifluorooctyl)-1,5-dideoxy-1,5-imino-D-glucitol for treating hepatitis virus infections” (priority 1999, dated 2000)
